ChEMBL document CHEMBL1909046, “DrugMatrix in vitro pharmacology data”

Experiments:
[1] = target: Protein phosphatase 3 catalytic subunit alpha (Homo sapiens, UniProt Q08209); set-up: species or system Escherichia coli;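 also: inhibition of calcineurin (PP2B) enzyme activity, measured with DiFMUP as the substrate; in other assays of this panel Not Active means under 50% inhibition at 10 µM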
[2] = target: Sigma non-opioid intracellular receptor 1 (Homo sapiens, UniProt Q99720); experiment: DRUGMATRIX: Sigma1 radioligand binding (ligand: [3H] Haloperidol); assay type: cell membranes, Jurkat, Membrane; conditions: jurkat; Not Active = under 50% inhibition at 10 µM
[3] = DRUGMATRIX: Phosphodiesterase PDE4 enzyme inhibition (substrate: [3H]cAMP + cAMP); conditions: u-937; Not Active = under 50% inhibition at 10 µM
Glucocorticoid receptor = target: T1, Glucocorticoid receptor (Homo sapiens, UniProt P04150); conditions: hela s3; also: in other assays of this panel Not Active means under 50% inhibition at 10 µM
T1 sequence (P04150 whole entry): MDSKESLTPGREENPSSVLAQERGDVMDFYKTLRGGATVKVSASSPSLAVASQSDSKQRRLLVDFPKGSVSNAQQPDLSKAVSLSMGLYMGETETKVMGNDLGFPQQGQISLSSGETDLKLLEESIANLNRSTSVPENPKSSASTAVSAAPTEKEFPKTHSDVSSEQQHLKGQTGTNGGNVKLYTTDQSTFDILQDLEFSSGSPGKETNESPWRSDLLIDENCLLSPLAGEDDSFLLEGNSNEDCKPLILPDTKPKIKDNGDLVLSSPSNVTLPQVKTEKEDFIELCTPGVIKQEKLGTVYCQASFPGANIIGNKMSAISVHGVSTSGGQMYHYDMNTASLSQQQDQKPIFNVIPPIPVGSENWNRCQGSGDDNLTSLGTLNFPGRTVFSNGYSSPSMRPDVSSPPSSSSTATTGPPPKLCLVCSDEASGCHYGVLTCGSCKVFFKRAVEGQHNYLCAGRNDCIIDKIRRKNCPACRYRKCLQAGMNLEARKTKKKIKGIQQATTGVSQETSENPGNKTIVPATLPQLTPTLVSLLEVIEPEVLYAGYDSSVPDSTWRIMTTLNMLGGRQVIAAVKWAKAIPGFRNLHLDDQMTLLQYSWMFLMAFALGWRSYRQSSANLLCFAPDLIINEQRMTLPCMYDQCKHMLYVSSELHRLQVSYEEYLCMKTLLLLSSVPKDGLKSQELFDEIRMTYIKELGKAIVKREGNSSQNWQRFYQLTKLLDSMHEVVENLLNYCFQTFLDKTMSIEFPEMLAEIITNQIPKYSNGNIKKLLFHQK

Melanocortin receptor 3 = Melanocortin receptor 3 (Homo sapiens, UniProt P41968); assay type: cell membranes, Membrane; conditions: hek293; also: in other assays of this panel Not Active means under 50% inhibition at 10 µM
[4] = target: T2, 5-hydroxytryptamine receptor 2C (Homo sapiens, UniProt P28335); experiment: DRUGMATRIX: Serotonin (5-Hydroxytryptamine) 5-HT2C radioligand binding (ligand: [3H] Mesulergine); assay type: cell membranes, CHO-K1, Membrane; conditions: cho-k1; Not Active = under 50% inhibition at 10 µM
T2 sequence (P28335 whole entry): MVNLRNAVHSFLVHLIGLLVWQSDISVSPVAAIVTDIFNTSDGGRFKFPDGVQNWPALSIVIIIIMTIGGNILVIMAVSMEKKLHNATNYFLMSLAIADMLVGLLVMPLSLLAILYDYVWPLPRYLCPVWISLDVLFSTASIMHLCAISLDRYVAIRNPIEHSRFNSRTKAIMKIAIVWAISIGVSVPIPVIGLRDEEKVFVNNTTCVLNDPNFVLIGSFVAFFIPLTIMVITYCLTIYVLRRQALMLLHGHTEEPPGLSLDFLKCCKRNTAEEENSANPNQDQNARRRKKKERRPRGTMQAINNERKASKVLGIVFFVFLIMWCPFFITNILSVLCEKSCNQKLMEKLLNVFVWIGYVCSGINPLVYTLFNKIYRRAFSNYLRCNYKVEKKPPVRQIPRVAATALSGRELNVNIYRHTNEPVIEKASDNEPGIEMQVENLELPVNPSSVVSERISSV

[5] = DRUGMATRIX: Atrial Natriuretic Factor (ANF) radioligand binding (ligand: [125I] ANF (rat)); assay type: cell membranes, Cavia porcellus, Dunkin-Hartley, Adrenal gland, Membrane; conditions: Not Active = under 50% inhibition at 10 µM
[6] = target: T3, Nitric oxide synthase, inducible (Mus musculus, UniProt P29477); set-up: species or system Escherichia coli;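 also: inhibition of iNOS enzyme activity measured with L-arginine as substrate; in other assays of this panel Not Active means under 50% inhibition at 10 µM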
T3 sequence (P29477 whole entry): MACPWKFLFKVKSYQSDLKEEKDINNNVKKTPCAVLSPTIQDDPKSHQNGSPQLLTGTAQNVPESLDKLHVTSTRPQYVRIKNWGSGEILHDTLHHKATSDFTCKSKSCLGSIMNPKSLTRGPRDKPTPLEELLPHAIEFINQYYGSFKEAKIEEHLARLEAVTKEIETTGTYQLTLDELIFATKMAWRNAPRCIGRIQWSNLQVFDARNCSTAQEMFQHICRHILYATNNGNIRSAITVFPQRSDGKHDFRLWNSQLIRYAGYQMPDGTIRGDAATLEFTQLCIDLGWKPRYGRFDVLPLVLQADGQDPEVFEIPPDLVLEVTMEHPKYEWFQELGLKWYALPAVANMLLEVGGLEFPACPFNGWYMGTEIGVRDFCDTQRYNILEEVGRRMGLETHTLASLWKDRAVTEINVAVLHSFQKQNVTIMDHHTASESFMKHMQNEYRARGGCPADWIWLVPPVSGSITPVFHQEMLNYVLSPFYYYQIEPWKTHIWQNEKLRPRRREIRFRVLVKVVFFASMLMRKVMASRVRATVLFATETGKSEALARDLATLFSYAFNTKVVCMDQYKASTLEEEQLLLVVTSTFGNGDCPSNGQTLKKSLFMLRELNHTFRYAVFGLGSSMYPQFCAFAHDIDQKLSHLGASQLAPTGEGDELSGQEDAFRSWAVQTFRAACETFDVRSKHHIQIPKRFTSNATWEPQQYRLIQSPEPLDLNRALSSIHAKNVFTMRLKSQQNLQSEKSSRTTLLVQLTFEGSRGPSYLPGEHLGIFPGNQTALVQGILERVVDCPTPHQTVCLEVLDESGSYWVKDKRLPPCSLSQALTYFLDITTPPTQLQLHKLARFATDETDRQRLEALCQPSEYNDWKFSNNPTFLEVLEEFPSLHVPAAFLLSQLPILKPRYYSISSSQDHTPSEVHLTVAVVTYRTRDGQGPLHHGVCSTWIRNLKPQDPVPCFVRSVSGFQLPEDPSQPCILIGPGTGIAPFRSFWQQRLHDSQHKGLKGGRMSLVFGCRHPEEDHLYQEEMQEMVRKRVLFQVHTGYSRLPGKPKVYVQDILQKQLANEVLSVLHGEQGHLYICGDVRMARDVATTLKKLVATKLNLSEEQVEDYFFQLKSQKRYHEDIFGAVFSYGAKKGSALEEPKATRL

Sequence of Sigma non-opioid intracellular receptor 1 (Q99720 whole entry): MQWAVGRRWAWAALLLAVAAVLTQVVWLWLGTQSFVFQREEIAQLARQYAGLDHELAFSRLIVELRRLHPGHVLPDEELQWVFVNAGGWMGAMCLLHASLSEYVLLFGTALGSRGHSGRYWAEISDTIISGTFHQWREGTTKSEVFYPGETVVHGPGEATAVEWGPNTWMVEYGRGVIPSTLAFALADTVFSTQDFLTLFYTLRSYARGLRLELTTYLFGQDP
Sequence of Melanocortin receptor 3 (P41968 whole entry): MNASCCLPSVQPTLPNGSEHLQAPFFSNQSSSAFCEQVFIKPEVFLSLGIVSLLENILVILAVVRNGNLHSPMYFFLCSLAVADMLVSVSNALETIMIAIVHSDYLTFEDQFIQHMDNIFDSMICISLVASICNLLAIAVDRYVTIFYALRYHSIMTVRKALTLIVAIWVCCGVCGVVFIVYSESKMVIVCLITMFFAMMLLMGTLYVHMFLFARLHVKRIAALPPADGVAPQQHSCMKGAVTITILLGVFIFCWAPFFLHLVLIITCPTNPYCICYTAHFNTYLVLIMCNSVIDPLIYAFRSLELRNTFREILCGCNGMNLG

STANNOUS FLUORIDE
Not Active: IC50 [1] | Ki [1] | IC50 [2] | Ki [2] | IC50 [3] | Ki [3] | IC50 (Glucocorticoid receptor) | Ki (Glucocorticoid receptor) | IC50 (Melanocortin receptor 3) | Ki (Melanocortin receptor 3) | IC50 [4] | Ki [4] | IC50 [5] | Ki [5] | IC50 [6] | Ki [6]

THIMEROSAL
Not Active: IC50 [1] | Ki [1] | IC50 [2] | Ki [2] | IC50 [3] | Ki [3] | IC50 (Glucocorticoid receptor) | Ki (Glucocorticoid receptor) | IC50 (Melanocortin receptor 3) | Ki (Melanocortin receptor 3) | IC50 [4] | Ki [4] | IC50 [5] | Ki [5] | IC50 [6] | Ki [6]
